Laboratory results reported in patent publication US20240285599A1, “Mature-Hepatocyte Transdifferentiation Suppressing Composition” (OSAKA UNIVERSITY, priority 2021, published 2024).

Experiments:
[1] = tested on: TRAF3/PTEN knockdown primary human hepatocyte (PHH); assay: KRT19 mRNA quantification and immunoblotting (P52) in TRAF3/PTEN knockdown primary human hepatocyte; assay type: cell-based; settings: PHH (PTKD #1); for increase in expression of P52 by knockdown of TRAF3 and PTEN: western blot
Protocol: Human hepatocyte chimeric mice were generated in accordance with the protocol of the previous report (Hasegawa M, et al. Biochem Biophys Res Commun. 2011; 405(3): 405-410). Ganciclovir was administered to each of highly immunocompromised NOG mice (TK-NOG) each having a liver in which a herpes simplex virus type 1 thymidine kinase transgene had been expressed to induce liver injury, followed by the transplantation of human hepatocytes. As described in the previous report (Murai K, et al. Sci Rep. 2020; 10(1): 941), primary human hepatocytes were collected from the human hepatocyte chimeric mice each having a chimeric liver rate of 90% or more by using a two-step collagenase-pronase reflux method. It was recognized by FACS that the human hepatocytes accounted for 90% or more of the collected cells. Those cells were spread on a collagen-coated dish and cultured.
(§1) The transfection of siRNA or a plasmid into cells was performed with Lipofectamine RNAiMAX Transfection Reagent (Thermo Fisher Scientific, Inc., USA) or Lipofectamine 2000 (Thermo Fisher Scientific, Inc., USA), respectively, and with Opti-MEM (Thermo Fisher Scientific, Inc., USA). The transfection of the siRNA was performed as follows: the cells were dispersed at a concentration of 100,000 cells/mL; 10 μM of the siRNA was mixed into 100 μL of the Opti-MEM at a ratio of 1 μL, and the mixture was left at rest for 5 minutes; and then 3 μL of the RNAiMAX was mixed into the mixture, and the whole was left at rest for 15 minutes, followed by administration to the supernatant of the previously dispersed cells. Further, a medium change was performed 24 hours thereafter.
(§2) A procedure for western blotting is as described in the previous report (Tanaka S, et al. Hepatology. 2016; 64(6): 1994-2014). The protein extracts of cells and animal tissues were prepared by using a lysis buffer having added thereto a protease inhibitor (Nacalai Tesque, Inc., Japan) and a phosphatase inhibitor (Nacalai Tesque, Inc., Japan). In western blotting for the detection of NIK, MG-132 (ChemScene, USA) was administered at a concentration of 5 μM 4 hours before protein recovery. The following antibodies were used in immunodetection: TRAF3 (1:1,000 Cell Signaling, #4729), PTEN (1:1,000 Cell Signaling, #9188), KRT19 (1:50,000 Abcam, #ab52625), p100/p52 (1:1,000 Cell Signaling, #4882), NIK (1:1,000 Cell Signaling, #4994), and β-actin (1:10,000 Sigma-Aldrich Co., LLC, #A5316). Anti-mouse IgG, HRP-linked whole Ab sheep (Cytiva, Japan), or anti-rabbit IgG, HRP-linked whole Ab donkey (Cytiva, Japan) was used as a secondary antibody, and luminescence analysis was performed with SuperSignal (trademark) West Pico PLUS Chemiluminescent Substrate (Thermo Fisher Scientific, Inc., USA).
(§3) Total RNA was extracted from a cell line and a human liver tissue with RNeasy Mini Kit (QIAGEN N.V., Nederland). Then, 1 μg of the total RNA was reverse-transcribed with ReverTra Ace qPCR RT Kit (Toyobo Co., Ltd., Tokyo) to synthesize complementary DNA. The mRNA expression of each of the following genes was analyzed through use of a TaqMan gene expression assay: human GAPDH (Hs02758991), human TRAF3 (Hs00936781), human PTEN (Hs02621230), human KRT19 (Hs00761767), human NIK (Hs01089753), mouse Gapdh (Mm09999915), mouse Traf3 (Mm00495752), mouse Pten (Mm00477208), mouse Krt19 (Mm00492980), mouse NIK (Mm00444166), and mouse Alb (Mm00802090). The gene expression amount of a human and the gene expression amount of a mouse were normalized to the expression amount of GAPDH.
The effect of TRAF3/PTEN inhibition on the expression of a bile duct marker in each of a primary human hepatocyte (hereinafter also referred to as “PHH”) and a human hepatoma cell line HepG2 cell (hereinafter also referred to as “HepG2”) was evaluated. The PHH and the HepG2 are each a mature hepatocyte having an albumin-producing ability. The TRAF3 and PTEN of each of the HepG2 and the PHH were knocked down with siRNA. […]

[2] = tested on: TRAF3/PTEN knockdown HepG2 cell; assay: KRT19 mRNA quantification and immunoblotting (P52) in TRAF3/PTEN knockdown HepG2; assay type: cell-based, human; settings: HepG2 (PTKD #1); for increase in expression of P52 by knockdown of TRAF3 and PTEN: western blot
Protocol: as §1, §2, §3
The effect of TRAF3/PTEN inhibition on the expression of a bile duct marker in each of a primary human hepatocyte (hereinafter also referred to as “PHH”) and a human hepatoma cell line HepG2 cell (hereinafter also referred to as “HepG2”) was evaluated. The PHH and the HepG2 are each a mature hepatocyte having an albumin-producing ability. The TRAF3 and PTEN of each of the HepG2 and the PHH were knocked down with siRNA. The term “[…]” means a HepG2 or a PHH having introduced thereinto siRNA Traf3 #2 and Pten #1 (hereinafter also referred to as “PTKD #1HepG2” and “PTKD #1PHH” respectively). The term “PTKD #2” means a HepG2 or a PHH having introduced thereinto the siRNA Traf3 #2 and Pten #3 (hereinafter also referred to as “PTKD #2HepG2” and “PTKD #2PHH” respectively). All the siRNAs were obtained from Thermo Fisher Scientific, Inc. The sequence of each of the siRNAs is described below.
Specifically, 24 hours after the start of the culture of each of the PTKD #1HepG2 and the PTKD #1PHH obtained in Test Example 5, NIKSMI described above was added at a concentration of 9 μM. 48 Hours after that, the cells were recovered, and the mRNA of KRT19 was quantified, followed by immunoblotting. […]

[3] = NIKSMI 9 μM added 24 h after start of culture, cells recovered 48 h later, FIG. 11
[4] = NIK siRNA transfected, 72 h, FIG. 13
[5] = NIK siRNA transfected, cells recovered after 72 h culture, FIG. 13

COc1cc(C(N)=O)nc(-c2cccc(C#C[C@]3(O)CCN(C)C3=O)c2)c1 [NIKSMI, (R)-6-(3-((3-hydroxy-1-methyl-2-oxopyrrolidin-3-yl)ethynyl)phenyl)-4-methoxypicolinamide]
significantly suppressed: increase in expression of KRT19 by knockdown of TRAF3 and PTEN [1, 3] | increase in expression of P52 by knockdown of TRAF3 and PTEN ([1]; NIKSMI 9 μM, 48 h, FIG. 11) | increase in expression of KRT19 by knockdown of TRAF3 and PTEN [2, 3] | increase in expression of P52 by knockdown of TRAF3 and PTEN ([2]; NIKSMI 9 μM, 48 h, FIG. 11)

NIK KD #1: siRNA of NIK, SEQ ID NO: 2 (sense) and 3 (antisense), from Thermo Fisher Scientific (sense CAAACGCAAAGAGCAAGAAUU; antisense UUCUUGCUCUUUGCGUUUGCA; listed as RNA, chemistry not given here)
significantly suppressed: increase in expression of P52 by knockdown of TRAF3 and PTEN [1, 4] | increase in expression of KRT19 by knockdown of TRAF3 and PTEN [1, 5] | increase in expression of P52 by knockdown of TRAF3 and PTEN [2, 4] | increase in expression of KRT19 by knockdown of TRAF3 and PTEN [2, 5]

NIK KD #2: siRNA of NIK, SEQ ID NO: 4 (sense) and 5 (antisense), from Thermo Fisher Scientific (sense GCAAAGAGCAAGAACCAAAUU; antisense UUUGGUUCUUGCUCUUUGCGU; listed as RNA, chemistry not given here)
significantly suppressed: increase in expression of P52 by knockdown of TRAF3 and PTEN [1, 4] | increase in expression of KRT19 by knockdown of TRAF3 and PTEN [1, 5] | increase in expression of P52 by knockdown of TRAF3 and PTEN [2, 4] | increase in expression of KRT19 by knockdown of TRAF3 and PTEN [2, 5]
